In patent US12565494B2, “Inhibitors of human respiratory syncytial virus and metapneumovirus” (priority 2022, dated 2026) one finds EC50 data, which are given here for 13 compounds.

Like-named read-outs stand apart in the source and are kept apart here.

One assay deals with hMPV-GFP virus. Description: microbe, parasite or virus in culture. Format: cell-based, Human Metapneumovirus. Particulars: VERO cells, hMPV-GFP MOI=1.25, 48 hrs, GFP-expressing cells counted. As for the experimental part:
GFP expressing rgHMPV #3 p3 was generated in Dr. Buchholz's lab (Biacchesi S. et al., J Virol. 2007 June; 81(11): 6057-6067) and propagated in VERO cells (ATCC Cat #CCL-81) with a Multiplicity of Infection (MOI) of 0.1. Virus was harvested 4 days after infection by collecting cultured material and was freeze-thaw cycled in liquid nitrogen twice. Working virus stocks were generated from thawing frozen samples in 37° C. water bath, which were centrifuged at 218 g for 15 min at 4° C. 1/10 of 10×SPG (Biological Industries 06-3061-01-5A) were added and then mixed. The supernatant was aliquoted, frozen in liquid nitrogen, and then transferred to a −80° C. freezer for storage. Virus titer was determined by performing titration test in 96-well plates and calculate approximate virus titer using GFP event/well data.
Compound plates were prepared by dispensing compounds dissolved in DMSO into wells of a 384 well Corning 3985 polystyrene flat clear bottom optical imaging microplate (202.5 nL/well) using an ECHO acoustic dispenser. Each compound was tested in 10-point serial 3-fold dilution (typical final concentrations: 40,300 nM-2 nM). […] Continuous culture of VERO cells was maintained in complete culture media (OptiMEM supplemented with 2 mM GlutaMAX™ and 100 U/ml Penicillin-Streptomycin). To set up the assay, VERO cells were trypsinized with 0.25% Trypsin-EDTA until cells were dislodged, then cells were re-suspended with 1 mL FBS. Cells were spundown at 300 g for 5 minutes and cells were washed twice with culture media and counted using default parameters on ViCell. Cells were then diluted to 100,000 cells/mL (5,000 cells/50 μL) in complete culture media+TrypLE Select (80 μL/mL). hMPV-GFP virus was added to cells at 125,000 pfu/mL (MOI=1.25) and were mixed by gentle inversion. 10 μL/well of 100% DMSO was dispensed to CellTiter-Glo (CTG) assay Max_E controls wells. Cells were dispensed at 50 μL/well using Bravo and 50 μL filtered tips into compound plates. Plates were covered with MicroClime lids and loaded with 7.5 mL of assay media to minimize evaporation. Plates were lightly shaken for 10 minutes at room temperature and then incubated at 37° C. and 5% CO2 for 48 hrs. Following incubation, distinct GFP-expressing cells were counted using an Acumen imaging system with appropriate settings. A same-well CTG assay was performed by adding 10 μL/well reconstituted CellTiter-Glo reagent (Promega G7573) and plates were read on PerkinElmer Envision according to manufacturer's instructions. Raw data were loaded and analyzed in ActivityBase. Antiviral IC50 and cytotoxicity CC50 values were determined using a 4 parameter logistic fit based on the Levenberg-Marquardt algorithm. Model: 205-4 Parameter Logistic.

Another assay deals with RSV-A2-GFP virus. Description: microbe, parasite or virus in culture. It is filed as cell-based, Human Respiratory Syncytial Virus. Particulars: Calu-1 cells, RSV-A2-GFP MOI=1.2, 96 hrs, GFP-expressing cells counted. The method, then: To set up the assay, ARF vials were thawed in a 37° C. water bath and a control compound was resuspended in assay media DMEM (Dulbecco's Modified Eagle Medium) containing 2% FBS, 100 U/ml Penicillin-Streptomycin.
GFP sequence was derived from pJTI™ R4 Dest CMV N-EmGFP pA Vector (Invitrogen) and was cloned into the intergenic sequence between wild-type RSV-A2 P and M genes using standard recombineering techniques. Recombinant RSV-A2-GFP was propagated in Hep2 cells (human cells contain HeLa marker chromosomes and were derived via HeLa contamination, ATCC CCL-23) with a Multiplicity of Infection (MOI) of 0.1. Virus was harvested 3 days after infection by collecting all culture material and then freeze-thawing the mixture for 5 minutes. Working virus stocks were generated by thawing frozen viral cultures in 37° C. water bath, which were centrifuged at 218 g for 15 min at 4° C. 1/10 of 10×SPG (Biological Industries 06-3061-01-5A) were added and then mixed. The supernatant was aliquoted, frozen in liquid nitrogen, and then transferred to a −80° C. freezer for storage. Virus titer was determined by automated plaque assay in HEp-2 cells following methods described previously (Wen Z. et al.; 2019).
Calu-1 cells were purchased from ATCC (Cat #HTB-54) and were expanded in growth media (DMEM containing 10% FBS, 100 U/ml Penicillin-Streptomycin). To make ARF, cell culture media was removed and discarded and the cell layer was briefly rinsed with PBS to remove serum. 2.5 mL of TrypLE Express solution were added and cells incubated until dislodged, to which growth media was added and the cells were resuspended by gentle pipetting. Cells were counted for concentration and viability as determined by ViCell. Cells were centrifuged at RT, 300 g for 5 minutes to pellet cells. The supernatant was gently aspirated and the pellet was flicked to loosen cells. Cells were resuspended in an appropriate volume of freezing medium (DMEM containing 10% DMSO, 10% FBS, 100 U/ml Penicillin-Streptomycin) to achieve a concentration of 5×10^6 cells/mL. 1 mL aliquots of the cell suspension were transferred to freezing vials. The vials were put into an upright container in a −80° C. freezer overnight before transferring vials to liquid nitrogen for storage
Assay ready freeze-down (ARF, generation described separately) Calu-1 cells (ATCC HTB-54) were used. Compound plates were prepared by dispensing compounds dissolved in DMSO into the wells of a 384 well Corning® 3985 plate with an ECHO acoustic dispenser and compounds were tested in 10-point serial 3-fold dilution. […] To set up the assay, ARF vial(s) were thawed in a 37° C. water bath and were then resuspended into assay media (DMEM containing 2% FBS, 100 U/ml Penicillin-Streptomycin). Cells were counted using default parameters on ViCell and diluted to 20,000 cells/mL in assay media. RSV-A2-GFP virus was added to cells at 24,000 pfu/ml (MOI=1.2) and mixed by gentle inversion. 10 μL/well of 100% DMSO was dispensed as CellTiter-Glo (CTG) assay Max_E controls wells. The cells were dispensed at 50 μL/well using Bravo with 50 μL filtered tips into compound plates. Plates were covered with MicroClime lids, loaded with 7.5 mL of assay media to minimize evaporation, and were incubated at 37° C. and 5% CO2 for 96 hrs. Following incubation, distinct, GFP-expressing cells were counted using an Acumen imaging system with appropriate settings. A same-well CTG assay was performed by adding 10 μL/well reconstituted CellTiter-Glo reagent (Promega G7573) and plates were read on PerkinElmer Envision according to manufacturer's instructions. Raw data were loaded and analyzed in ActivityBase. Antiviral IC50 and cytotoxicity CC50 values were determined using a 4 parameter logistic fit based on the Levenberg-Marquardt algorithm. Model: 205-4 Parameter Logistic.

Setting [1] is: Vero, 48 h, read-out: RSV EC50, Table II Summary of Activities for hMPV.
Setting [2] is: human respiratory syncytial virus, Calu-1, 96 h, read-out: RSV EC50, Table I Summary of Activities for RSV.
[3] abbreviates: Table II Summary of Activities for hMPV, read-out: RSV EC50.
[4] abbreviates: Table I Summary of Activities for RSV, read-out: RSV EC50.

As to `CC(N)c1cc(O[C@H]2[C@@H]3CN(C(=O)c4cc(-c5ccon5)nn4C)C[C@@H]32)nc(-c2ccc(F)cc2)c1` (single isomer, unassigned; enantiomer 2) [Example 62B], the EC50 is greater than 100 nM with hMPV-GFP virus (read-out: RSV EC50, Table II Summary of Activities for hMPV) and less than 10 nM in the assay on RSV-A2-GFP virus (read-out: RSV EC50, Table I Summary of Activities for RSV).

On to `Cn1nc(-c2cscn2)cc1C(=O)N1C[C@@H]2[C@H]1C[C@H]2Oc1cc(C(C)(C)N)cc(-c2ccc(F)cc2)n1` (single isomer, unassigned; enantiomer 2) [Example 1], for which the EC50 was greater than 100 nM in the assay on hMPV-GFP virus (setting [1]) and less than 10 nM with RSV-A2-GFP virus (setting [2]).

With `CC(C)(N)c1cc(O[C@H]2[C@@H]3CN(C(=O)c4sc(-c5cscn5)nc4C4CC4)C[C@@H]32)nc(-c2ccc(F)cc2)c1` [Example 8, ((1R,5S,6s)-6-((4-(2-aminopropan-2-yl)-6-(4-fluorophenyl)pyridin-2-yl)oxy)-3-azabicyclo[3.1.0]hexan-3-yl)(4-cyclopropyl-[2,4′-bithiazol]-5-yl)methanone], the figures for the EC50 with hMPV-GFP virus (setting [3]) and in the assay with RSV-A2-GFP virus (setting [4]) were 10 to 100 nM and less than 10 nM, respectively.

`CC(C)(N)c1cc(O[C@H]2[C@@H]3CN(C(=O)c4nc(-c5cscn5)ns4)C[C@@H]32)nc(-c2ccc(F)cc2)c1` [Example 27, ((1R,5S,6s)-6-((4-(2-aminopropan-2-yl)-6-(4-fluorophenyl)pyridin-2-yl)oxy)-3-azabicyclo[3.1.0]hexan-3-yl)(3-(thiazol-4-yl)-1,2,4-thiadiazol-5-yl)methanone]: the values for the EC50 with hMPV-GFP virus (setting [3]) and in the assay on RSV-A2-GFP virus (setting [4]) were greater than 100 nM and 10 to 100 nM, respectively.

For `CC(C)(N)c1cc(O[C@H]2[C@@H]3CN(C(=O)c4cc(-c5cscn5)ns4)C[C@@H]32)nc(-c2ccc(F)cc2)c1` [Example 29, ((1R,5S,6s)-6-((4-(2-aminopropan-2-yl)-6-(4-fluorophenyl)pyridin-2-yl)oxy)-3-azabicyclo[3.1.0]hexan-3-yl)(3-(thiazol-4-yl)isothiazol-5-yl)methanone], the results for the EC50 in the assay with hMPV-GFP virus (setting [3]) and with RSV-A2-GFP virus (setting [4]) were greater than 100 nM and less than 10 nM, respectively.

As for `Cn1nc(-c2cscn2)cc1C(=O)N1C[C@@H]2[C@H](C1)[C@H]2Oc1cc(C(C)(N)CO)cc(-c2ccc(F)cc2)n1` (single isomer, unassigned; enantiomer 1) [Example 57A], the EC50 in the assay on hMPV-GFP virus (setting [1]) is greater than 100 nM; in the assay on RSV-A2-GFP virus (setting [2]), less than 10 nM.

With `Cc1cnc(-c2nc(C)c(C(=O)N3C[C@@H]4[C@H](C3)[C@H]4Oc3cc(C(C)(C)N)cc(-c4ccc(F)cc4)n3)s2)o1` [Example 4, ((1R,5S,6s)-6-((4-(2-aminopropan-2-yl)-6-(4-fluorophenyl)pyridin-2-yl)oxy)-3-azabicyclo[3.1.0]hexan-3-yl)(4-methyl-2-(5-methyloxazol-2-yl)thiazol-5-yl)methanone], the EC50 in the assay on hMPV-GFP virus (setting [3]) was 10 to 100 nM; in the assay on RSV-A2-GFP virus (setting [4]) it was less than 10 nM.

For the compound `Cn1nc(-c2cscn2)cc1C(=O)N1C[C@@H]2[C@H](C1)[C@H]2Oc1cc(C(C)(C)CN)cc(-c2ccc(F)cc2)n1` [Example 54, ((1R,5S,6s)-6-((4-(1-amino-2-methylpropan-2-yl)-6-(4-fluorophenyl)pyridin-2-yl)oxy)-3-azabicyclo[3.1.0]hexan-3-yl)(1-methyl-3-(thiazol-4-yl)-1H-pyrazol-5-yl)methanone], the EC50 in the assay on hMPV-GFP virus (setting [1]) is 10 to 100 nM; in the assay on RSV-A2-GFP virus (setting [2]), less than 10 nM.

Consider `Cn1nc(-c2ncco2)cc1C(=O)N1C[C@@H]2C(Oc3cc(C(C)(N)CO)cc(-c4ccc(F)cc4)n3)[C@@H]2C1` (single isomer, unassigned; enantiomer 2) [Example 58B], for which the EC50 with hMPV-GFP virus (setting [3]) was greater than 100 nM; in the assay on RSV-A2-GFP virus (setting [4]) it was less than 10 nM.

With `CCc1nc(-c2nc[nH]n2)sc1C(=O)N1C[C@@H]2[C@H](C1)[C@H]2Oc1cc(C(C)(C)N)cc(-c2ccc(F)cc2)n1` [Example 11, ((1R,5S,6s)-6-((4-(2-aminopropan-2-yl)-6-(4-fluorophenyl)pyridin-2-yl)oxy)-3-azabicyclo[3.1.0]hexan-3-yl)(4-ethyl-2-(1H-1,2,4-triazol-3-yl)thiazol-5-yl)methanone], the half-maximal effective concentration (EC50) is greater than 100 nM with hMPV-GFP virus (setting [3]) and less than 10 nM in the assay with RSV-A2-GFP virus (setting [4]).

Regarding `Cc1nc(-c2ccco2)sc1C(=O)N1C[C@@H]2[C@H](C1)[C@H]2Oc1cc(C(C)(C)N)cc(-c2ccc(F)cc2)n1` [Example 13, ((1R,5S,6s)-6-((4-(2-aminopropan-2-yl)-6-(4-fluorophenyl)pyridin-2-yl)oxy)-3-azabicyclo[3.1.0]hexan-3-yl)(2-(furan-2-yl)-4-methylthiazol-5-yl)methanone], the results for the EC50 with hMPV-GFP virus (setting [3]) and in the assay on RSV-A2-GFP virus (setting [4]) were 10 to 100 nM and less than 10 nM, respectively.

Consider `CC(C)(N)c1cc(O[C@H]2[C@@H]3CN(C(=O)c4sc(-c5cscn5)nc4C(F)F)C[C@@H]32)nc(-c2ccc(F)cc2)c1` [Example 14], for which the EC50 was greater than 100 nM in the assay with hMPV-GFP virus (setting [1]) and less than 10 nM in the assay on RSV-A2-GFP virus (setting [2]).

As to `Cc1nn(-c2cscn2)cc1C(=O)N1C[C@@H]2[C@H](C1)[C@H]2Oc1cc(C(C)(C)N)cc(-c2ccc(F)cc2)n1` [Example 28, ((1R,5S,6s)-6-((4-(2-aminopropan-2-yl)-6-(4-fluorophenyl)pyridin-2-yl)oxy)-3-azabicyclo[3.1.0]hexan-3-yl)(3-methyl-1-(thiazol-4-yl)-1H-pyrazol-4-yl)methanone], the 50% effective concentration (EC50) with hMPV-GFP virus (setting [3]) was greater than 100 nM; in the assay with RSV-A2-GFP virus (setting [4]) it was less than 10 nM.
